Test results reported in patent US4289765A, “4-Aminopyridines and medicaments containing the same” (Hoechst Aktiengesellschaft, priority 1979, dated 1981).
Counter-ions that a name gives are not always drawn. Like-named read-outs stand apart in the source and are kept apart here.

Key:
[1] = system: experimental bronchial spasms caused by histamine; assay: Bronchospasmolytic action, histamine-induced bronchial spasm (Konzett and Roessler); type: in vivo, guinea pig; details: Cavia porcellus, urethane-anaesthetized guinea pigs, dose reducing spasm to 50%, read-out: Bronchospasmolytic action (ED50) as compared with histamine
Protocol: (§1) The test substances were administered in an aqueous solution either by the intravenous (i.v.) or the intraduodenal (i.d.) route. Water-insoluble compounds were applied i.d. in carboxymethyl cellulose suspensions.

[2] = system: experimental bronchial spasms caused by serotonin; assay: Bronchospasmolytic action, serotonin-induced bronchial spasm (Konzett and Roessler); type: in vivo, guinea pig; details: Cavia porcellus, urethane-anaesthetized guinea pigs, dose reducing spasm to 50%, read-out: Bronchospasmolytic action (ED50) as compared with serotonin
Protocol: as §1

[3] = in vivo; details: mouse, ip
Protocol: The LD50 values or the LD50 ranges were determined according to common standards via the mortality occurring over 7 days with NMRI mice following a single intraperitoneal (i.p.) administration.

[4] = system: experimental bronchial spasms caused by acetyl choline; assay: Bronchospasmolytic action, acetyl choline-induced bronchial spasm (Konzett and Roessler); type: in vivo, guinea pig; details: Cavia porcellus, urethane-anaesthetized guinea pigs, dose reducing spasm to 50%, read-out: Bronchospasmolytic action (ED50) as compared with acetyl choline
Protocol: as §1

SMILES | ED50 ([1]; iv) | ED50 ([1]; i.d. (intraduodenal)) | ED50 ([2]; iv) | ED50 ([2]; i.d. (intraduodenal)) | LD50 at 168 h [3] | ED50 ([4]; iv) | ED50 ([4]; i.d. (intraduodenal))
Cc1cc(N2CCSCC2)c([N+](=O)[O-])c(C)n1 [Example 1, 4-(2,6-Dimethyl-3-nitro-4-pyridyl)-thiomorpholinohydrochloride] | 1.05 mg/kg | 2.6 mg/kg | 1.32 mg/kg | 2.52 mg/kg | 160 mg/kg | 1.47 mg/kg | 4.13 mg/kg
Cn1c(=O)c2[nH]cnc2n(C)c1=O [theophylline-ethylene diamine, reference compound] | 5.6 mg/kg |  | 7.3 mg/kg |  |  | 8.3 mg/kg | 10 to 20 mg/kg
Cc1cc(NCCF)c([N+](=O)[O-])c(C)n1 [Example 32] | 1 mg/kg |  | 1 to 3 mg/kg |  | 150 to 300 mg/kg | 3 to 10 mg/kg | 
Cc1cc(NCCCl)c([N+](=O)[O-])c(C)n1 [Example 18] | 3 mg/kg |  | 1 to 3 mg/kg |  | 150 to 300 mg/kg | 1 to 3 mg/kg | 
COC(CNc1cc(C)nc(C)c1[N+](=O)[O-])OC [Example 17] | > 10 mg/kg |  |  |  | 400 to 800 mg/kg | 3 to 10 mg/kg | 
Cc1cc(N2CCSCC2)c(C#N)c(C)n1 [Example 13] | 1 to 3 mg/kg | 1 to 3 mg/kg | 3 mg/kg |  | 150 to 300 mg/kg | 3 mg/kg | 3 to 10 mg/kg
Cc1cc(NCc2ccc3c(c2)OCO3)c([N+](=O)[O-])c(C)n1 [Example 22] | 3 mg/kg |  |  |  |  | 3 to 10 mg/kg | 
Cc1cc(N2CCSC(C)C2)c([N+](=O)[O-])c(C)n1 (centres unmarked) [Example 15] | 3 to 10 mg/kg |  |  |  | 150 to 300 mg/kg | 3 to 10 mg/kg | 
COc1ccc(CNc2cc(C)nc(C)c2[N+](=O)[O-])cc1 [Example 24] | 0.3 to 1 mg/kg |  | 1 to 3 mg/kg |  | > 600 mg/kg | 1 to 3 mg/kg | 
CCCc1cc(N2CCSCC2)c([N+](=O)[O-])c(CCC)n1 [Example 14] | 3 mg/kg |  | 3 to 10 mg/kg |  | 300 to 600 mg/kg | 1 to 3 mg/kg | 
Cc1cc(NCc2ccc(S(N)(=O)=O)cc2)c([N+](=O)[O-])c(C)n1 [Example 23] | 3 to 10 mg/kg |  |  |  | 600 to 1200 mg/kg | 1 to 3 mg/kg | 
Cc1cc(N2CCOCC2)c([N+](=O)[O-])c(C)n1 [Example 9] | 1 to 3 mg/kg |  |  |  | 300 to 1000 mg/kg | 3 to 10 mg/kg | 
